# Measurements published in US8604016B2, “Heterocyclic inhibitors of glutaminase” (Calithera Biosciences Inc., priority 2011, dated 2013).
# Molecular target: recombinant form of Glutaminase 1 (GAC) (Homo sapiens, UniProt O94925)
# Test: Recombinant Enzyme Assay (GAC coupled to GDH, NADH absorbance, no preincubation)
# Assay type: biochemical
# Settings: no preincubation; read-out: GAC Delta N2 IC50 no preinc
# Description: Enzymatic reaction was started with the addition of 50 μL of enzyme solution (50 mM Tris-HCl pH 8.0, 0.2 mM EDTA, 150 mM K2HPO4, 0.1 mg/ml BSA, 1 mM DTT, 10 ppm antifoam, 4 units/ml GDH, 4 mM adenosine diphosphate, and 4 nM GAC) and read in a Molecular Devices M5 plate reader at 20° C. The plate reader was configured to read absorbance (λ=340 nm) in kinetic mode for 15 minutes. Data was recorded as milli-absorbance units per minute and slopes were compared to a control compound and a DMSO-only control on the same plate. Compounds with slopes less than the DMSO control were considered inhibitors and plate variability was assessed using the control compound.
row,Structure (SMILES),IC50
1,COc1ccc(C(=O)Nc2nnc(CCSCCc3nnc(NC(=O)c4ccc(OC)cc4)s3)s2)cc1 [Compound 3],> 50 µM
2,CC(C)CC(=O)Nc1nnc(CCSCCc2nnc(NC(=O)CC(C)C)s2)s1 [Compound 4],13 µM
3,CC(=O)OCC(=O)Nc1nnc(CCSCCc2nnc(NC(=O)COC(C)=O)s2)s1 [Compound 5],> 50 µM
4,CN(C(=O)Cc1ccccc1)c1nnc(CCSCCc2nnc(N(C)C(=O)Cc3ccccc3)s2)s1 [Compound 6],> 50 µM
5,CCCC(=O)OCN(C(=O)Cc1ccccc1)c1nnc(CCSCCc2nnc(NC(=O)Cc3ccccc3)s2)s1 [Compound 7],> 50 µM
6,CCCC(=O)OCN(C(=O)Cc1ccccc1)c1nnc(CCSCCc2nnc(N(COC(=O)CCC)C(=O)Cc3ccccc3)s2)s1 [Compound 8],> 50 µM
7,CC(CCc1nnc(NC(=O)Cc2ccccc2)s1)CCc1nnc(NC(=O)Cc2ccccc2)s1 [Compound 9],> 50 µM
8,CC(C)(CCc1nnc(NC(=O)Cc2ccccc2)s1)CCc1nnc(NC(=O)Cc2ccccc2)s1 [Compound 10],> 50 µM
9,O=C(CN1CCOCC1)Nc1nnc(CCSCCc2nnc(NC(=O)CN3CCOCC3)s2)s1 [Compound 12],> 50 µM
10,CC(=O)OCC(C(=O)Nc1nnc(CCSCCc2nnc(NC(=O)C(COC(C)=O)c3ccccc3)s2)s1)c1ccccc1 (centres unmarked) [Compound 14],2.8 µM
11,CC(C)(C)C(=O)OCN(C(=O)Cc1ccccc1)c1nnc(CCSCCc2nnc(NC(=O)Cc3ccccc3)s2)s1 [Compound 15],> 50 µM
12,CC(C)(C)C(=O)OCN(C(=O)Cc1ccccc1)c1nnc(CCSCCc2nnc(N(COC(=O)C(C)(C)C)C(=O)Cc3ccccc3)s2)s1 [Compound 16],> 50 µM
13,C=CCCC(=O)Nc1nnc(CCSCCc2nnc(NC(=O)CCC=C)s2)s1 [Compound 18],4.5 µM
14,CC(C(=O)Nc1nnc(CCSCCc2nnc(NC(=O)C(C)c3ccccc3)s2)s1)c1ccccc1 (centres unmarked) [Compound 19],11 µM
15,CC(C(=O)Nc1nnc(CCSCCc2nnc(N)s2)s1)c1ccccc1 (centres unmarked) [Compound 20],6.6 µM
16,O=C(Nc1nnc(CCSCCc2nnc(NC(=O)[C@@H]3CCCN3C(=O)C(F)(F)F)s2)s1)[C@@H]1CCCN1C(=O)C(F)(F)F [Compound 22],> 50 µM
17,Nc1nnc(CCSCCc2nnc(NC(=O)[C@@H]3CCCN3C(=O)C(F)(F)F)s2)s1 [Compound 23],> 50 µM
18,CC(=O)Nc1nnc(CCSCCc2nnc(NC(=O)Cc3ccccc3)s2)s1 [Compound 25],1.2 µM
19,O=C(Cc1ccccc1)Nc1nnc(CCSCCc2nnc(N(COC(=O)OCCCN3CCOCC3)C(=O)Cc3ccccc3)s2)s1 [Compound 27],> 50 µM
20,O=C(OCCCN1CCOCC1)OCN(C(=O)Cc1ccccc1)c1nnc(CCSCCc2nnc(N(COC(=O)OCCCN3CCOCC3)C(=O)Cc3ccccc3)s2)s1 [Compound 28],> 50 µM
21,O=C(Nc1nnc(CCCCCc2nnc(NC(=O)C(CO)c3ccccc3)s2)s1)C(CO)c1ccccc1 (centres unmarked) [Compound 30],1.2 µM
22,COC(=O)c1cccc(NC(=O)Nc2nnc(CCSCCc3nnc(NC(=O)Nc4cccc(C(=O)OC)c4)s3)s2)c1 [Compound 31],> 50 µM
23,CC(C)[C@H](N)C(=O)Nc1nnc(CCSCCc2nnc(NC(=O)Cc3ccccc3)s2)s1 [Compound 32],7 µM

row,Structure (SMILES),IC50
1,CC(C)[C@H](NC(=O)OC(C)(C)C)C(=O)Nc1nnc(CCSCCc2nnc(NC(=O)Cc3ccccc3)s2)s1 [Compound 33],13 µM
2,CC(C)[C@H](NC(=O)OC(C)(C)C)C(=O)Nc1nnc(CCSCCc2nnc(NC(=O)[C@@H](NC(=O)OC(C)(C)C)C(C)C)s2)s1 [Compound 34],> 50 µM
3,O=C(Cc1ccccc1)Nc1nnc(CCSCCc2nnc(NC(=O)[C@@H]3CCCN3C(=O)C(F)(F)F)s2)s1 [Compound 35],18 µM
4,O=C(Nc1nnc(CCSCCc2nnc(NC(=O)C3CCc4ccccc4C3)s2)s1)C1CCc2ccccc2C1 (centres unmarked) [Compound 37],> 50 µM
5,O=C(Nc1nnc(CCSCCc2nnc(NC(=O)C3CC4CCC3C4)s2)s1)C1CC2CCC1C2 (centres unmarked) [Compound 38],> 50 µM
6,O=C(Nc1nnc(CCSCCc2nnc(NC(=O)C3CCCO3)s2)s1)C1CCCO1 (centres unmarked) [Compound 39],26 µM
7,O=C(Nc1nnc(CCSCCc2nnc(NC(=O)C3CCCC3)s2)s1)C1CCCC1 [Compound 40],3.7 µM
8,O=C(Nc1nnc(CCSCCc2nnc(NC(=O)C3COc4ccccc4O3)s2)s1)C1COc2ccccc2O1 (centres unmarked) [Compound 41],7.9 µM
9,CC(C)[C@H](NC(=O)OC(C)(C)C)C(=O)Nc1nnc(CCCCc2nnc(NC(=O)[C@@H](NC(=O)OC(C)(C)C)C(C)C)s2)s1 [Compound 42],> 50 µM
10,O=C(COc1ccccc1)Nc1nnc(CCCCc2nnc(NC(=O)COc3ccccc3)s2)s1 [Compound 43],2.3 µM
11,CC(CCc1nnc(NC(=O)Cc2ccccc2)s1)Cc1nnc(NC(=O)Cc2ccccc2)s1 (centres unmarked) [Compound 44],4.9 µM
12,O=C(Nc1nnc(CCCCc2nnc(NC(=O)C(F)(F)F)s2)s1)C(F)(F)F [Compound 45],> 50 µM
13,CC(C)(C)OC(=O)N[C@@H](C(=O)Nc1nnc(CCSCCc2nnc(NC(=O)[C@H](NC(=O)OC(C)(C)C)c3ccccc3)s2)s1)c1ccccc1 [Compound 46],> 50 µM
14,N[C@@H](C(=O)Nc1nnc(CCSCCc2nnc(NC(=O)[C@H](N)c3ccccc3)s2)s1)c1ccccc1 [Compound 47],8.3 µM
15,O=C(CC1CCCCC1)Nc1nnc(CCSCCc2nnc(NC(=O)CC3CCCCC3)s2)s1 [Compound 48],> 50 µM
16,C[C@H](NC(=O)OC(C)(C)C)C(=O)Nc1nnc(CCSCCc2nnc(NC(=O)[C@H](C)NC(=O)OC(C)(C)C)s2)s1 [Compound 49],36 µM
17,O=C(Nc1nnc(CCSCCc2nnc(NC(=O)C3Cc4ccccc4O3)s2)s1)C1Cc2ccccc2O1 (centres unmarked) [Compound 50],2.5 µM
18,O=C(Nc1nnc(CCCCc2nnc(NC(=O)C3Cc4ccccc4O3)s2)s1)C1Cc2ccccc2O1 (centres unmarked) [Compound 51],1.2 µM
19,O=C(Nc1nnc(CCCCc2nnc(NC(=O)C3COc4ccccc4O3)s2)s1)C1COc2ccccc2O1 (centres unmarked) [Compound 52],8.3 µM
20,O=C(Nc1nnc(CCCCc2nnc(NC(=O)C3CCCC3)s2)s1)C1CCCC1 [Compound 53],> 50 µM
21,O=C(Nc1nnc(CCCCc2nnc(NC(=O)C3CCCO3)s2)s1)C1CCCO1 (centres unmarked) [Compound 54],9.2 µM
22,O=C(Nc1nnc(CCCCc2nnc(NC(=O)C3CC4CCC3C4)s2)s1)C1CC2CCC1C2 (centres unmarked) [Compound 55],> 50 µM
23,CC(O)(C(=O)Nc1nnc(CCSCCc2nnc(N)s2)s1)C(F)(F)F (centres unmarked) [Compound 56],> 50 µM

row,Structure (SMILES),IC50
1,O=C(Cn1cccn1)Nc1nnc(CCSCCc2nnc(NC(=O)Cn3cccn3)s2)s1 [Compound 57],40 µM
2,O=C(CC1CCCC1)Nc1nnc(CCSCCc2nnc(NC(=O)CC3CCCC3)s2)s1 [Compound 58],> 50 µM
3,O=C(Nc1nnc(CCSCCc2nnc(NC(=O)C3(C(F)(F)F)CC3)s2)s1)C1(C(F)(F)F)CC1 [Compound 59],> 50 µM
4,O=C(Cn1cccn1)Nc1nnc(CCCCc2nnc(NC(=O)Cn3cccn3)s2)s1 [Compound 60],24 µM
5,O=C(CC1CCCC1)Nc1nnc(CCCCc2nnc(NC(=O)CC3CCCC3)s2)s1 [Compound 61],> 50 µM
6,O=C(Nc1nnc(CCCCc2nnc(NC(=O)C3(C(F)(F)F)CC3)s2)s1)C1(C(F)(F)F)CC1 [Compound 62],> 50 µM
7,CC(C)(C)OC(=O)N1CCN(C(C(=O)Nc2nnc(CCCCc3nnc(NC(=O)C(c4ccccc4)N4CCN(C(=O)OC(C)(C)C)CC4)s3)s2)c2ccccc2)CC1 (centres unmarked) [Compound 63],25 µM
8,O=C1CC(C(=O)Nc2nnc(CCCCc3nnc(NC(=O)C4CC(=O)c5ccccc54)s3)s2)c2ccccc21 (centres unmarked) [Compound 64],1.3 µM
9,COC(C(=O)Nc1nnc(CCCCc2nnc(NC(=O)C(OC)c3ccccc3)s2)s1)c1ccccc1 (centres unmarked) [Compound 65],1.3 µM
10,CC(=O)O[C@H](C(=O)Nc1nnc(CCCCc2nnc(NC(=O)[C@@H](OC(C)=O)c3ccccc3)s2)s1)c1ccccc1 [Compound 66],20 µM
11,COC(C(=O)Nc1nnc(CCSCCc2nnc(NC(=O)C(OC)c3ccccc3)s2)s1)c1ccccc1 (centres unmarked) [Compound 67],3 µM
12,O=CO[C@@H](C(=O)Nc1nnc(CCCCc2nnc(NC(=O)[C@H](OC=O)c3ccccc3)s2)s1)c1ccccc1 [Compound 68],4.9 µM
13,O=C(Nc1nnc(CCCCc2nnc(NC(=O)C(O)Cc3ccccc3)s2)s1)C(O)Cc1ccccc1 (centres unmarked) [Compound 69],0.69 µM
14,CC(C)(C)OC(=O)N1CCN(C(C(=O)Nc2nnc(CCSCCc3nnc(NC(=O)Cc4ccccc4)s3)s2)c2ccccc2)CC1 (centres unmarked) [Compound 70],3.4 µM
15,CC(=O)O[C@H](C(=O)Nc1nnc(CCSCCc2nnc(NC(=O)[C@@H](OC(C)=O)c3ccccc3)s2)s1)c1ccccc1 [Compound 71],> 50 µM
16,CC(C)[C@H](N)C(=O)Nc1nnc(CCCCc2nnc(NC(=O)[C@@H](N)C(C)C)s2)s1 [Compound 73],> 50 µM
17,C[C@H](N)C(=O)Nc1nnc(CCSCCc2nnc(NC(=O)[C@H](C)N)s2)s1 [Compound 74],> 50 µM
18,O=C(CCc1ccccc1)Nc1nnc(CCSCCc2nnc(NC(=O)CCc3ccccc3)s2)s1 [Compound 75],> 50 µM
19,CC(C)(C)OC(=O)N1CCN(C(C(=O)Nc2nnc(CCSCCc3nnc(NC(=O)C(c4ccccc4)N4CCN(C(=O)OC(C)(C)C)CC4)s3)s2)c2ccccc2)CC1 (centres unmarked) [Compound 76],> 50 µM
20,O=C(Nc1nnc(CCCCc2nnc(NC(=O)C(c3ccccc3)N3CCNCC3)s2)s1)C(c1ccccc1)N1CCNCC1 (centres unmarked) [Compound 77],6.1 µM
21,O=C(Nc1nnc(CCCCc2nnc(NC(=O)[C@H](O)c3ccccc3)s2)s1)[C@H](O)c1ccccc1 [Compound 80],1.8 µM

# Same assay, conditions: read-out: GAC Delta N2 IC50 no preinc
row,Structure (SMILES),IC50
1,O=C(Nc1nnc(CCSCCc2nnc(NC(=O)c3ccccc3)s2)s1)c1ccccc1 [Compound 2],4.1 µM
